# Test results: patent US20090163698A1, “Method for Preparing Antibody Conjugates” (priority 2007, published 2009)
# Experiments:
# [1] = tested on: A375.S2 cells; assay: Binding and internalization study at 37° C., confocal microscopy; format: cell-based, human; settings: 37° C. for 10 min, washed, incubated 1 hour at 37° C.
# Method: A375.S2 cells were harvested by scraping and then resuspended to obtain individualized cells and rejuvenated for 1 hour, at 37° C. About 1 million cells of each tumor type were counted and distributed into individual centrifugation tubes. The tubes were spun to obtain a cell pellet.
# For binding and internalization, the cells were treated with the targeted liposome formulation at 37° C. for 10 min with mild shaking (140 rpm). Cells were treated with the liposome formulations containing either a doxorubicin payload or a fluorescent marker (Dextran Alexa Fluor 488). Treatment was terminated by adding 1 mL of washing media (serum free), vortexing briefly, and centrifuging to recover a cell pellet The cells in the pellet were resuspend in washing media, vigorously shaken for 10 minutes at 37° C. and then centrifuged again (440 rpm). The cell pellet was left in 100 μL of media, an aliquot of 8 μL was taken and placed on a glass slide for observation under a confocal microscope.
# Binding and internalization of the targeted liposomes to A375.S2 cells was evaluated after various incubation times of the cells and the liposome formulation.
# [2] = tested on: murine αVβ3/5 integrin; settings: cited from earlier work
# Chain of murine αVβ3/5 integrin (P43406 31-885 limits assumed): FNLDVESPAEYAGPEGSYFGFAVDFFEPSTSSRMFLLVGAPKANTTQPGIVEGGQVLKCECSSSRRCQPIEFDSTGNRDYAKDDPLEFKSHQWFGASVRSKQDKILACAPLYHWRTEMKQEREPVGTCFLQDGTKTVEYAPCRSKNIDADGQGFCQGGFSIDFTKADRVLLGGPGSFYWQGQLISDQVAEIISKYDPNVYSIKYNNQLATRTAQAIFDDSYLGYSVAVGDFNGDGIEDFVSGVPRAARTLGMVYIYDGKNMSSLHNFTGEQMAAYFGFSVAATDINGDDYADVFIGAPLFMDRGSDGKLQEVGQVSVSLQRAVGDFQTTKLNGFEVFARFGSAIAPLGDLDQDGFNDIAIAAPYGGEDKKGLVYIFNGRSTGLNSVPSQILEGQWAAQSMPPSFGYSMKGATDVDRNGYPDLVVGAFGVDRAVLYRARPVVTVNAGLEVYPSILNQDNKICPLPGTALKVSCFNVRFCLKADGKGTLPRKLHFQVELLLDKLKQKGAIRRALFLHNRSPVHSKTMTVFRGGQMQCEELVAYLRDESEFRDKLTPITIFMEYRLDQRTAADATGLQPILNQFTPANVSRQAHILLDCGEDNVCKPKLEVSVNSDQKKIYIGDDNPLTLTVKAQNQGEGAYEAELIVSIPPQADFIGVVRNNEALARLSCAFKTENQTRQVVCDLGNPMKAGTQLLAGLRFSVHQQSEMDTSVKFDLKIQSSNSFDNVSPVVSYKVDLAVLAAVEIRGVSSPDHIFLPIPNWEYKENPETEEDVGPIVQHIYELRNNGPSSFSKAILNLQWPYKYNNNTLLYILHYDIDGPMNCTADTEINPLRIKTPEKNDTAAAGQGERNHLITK
# Chain of murine αVβ3/5 integrin (P43406 887-1044 limits assumed): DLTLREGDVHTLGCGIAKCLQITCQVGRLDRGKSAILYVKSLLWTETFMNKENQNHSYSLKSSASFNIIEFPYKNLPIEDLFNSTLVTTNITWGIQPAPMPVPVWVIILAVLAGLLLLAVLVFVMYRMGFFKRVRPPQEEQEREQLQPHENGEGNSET
Compound,Binding and internalization (confocal microscopy) [1],Binding to murine αVβ3/5 integrin [2]
"COc1cccc2c1C(=O)c1c(O)c3c(c(O)c1C2=O)C[C@@](O)(C(=O)CO)C[C@@H]3O[C@H]1C[C@H](N)[C@H](O)[C@H](C)O1 [free dox, doxorubicin]",drug internalization is evident,–
"CNTO95: full-length human anti-alpha-V antibody of the IgG1k type, SEQ ID NO: 1 and SEQ ID NO: 2",–,does not bind
